Results taken from ChEMBL document CHEMBL1141300, “Putrescine bisamides from Aglaia gigantea” (J Nat Prod, 2007).
Activity calls are given as the source filed them. The rule behind the calls is not given here.

Test system: Spodoptera littoralis
Test: Insecticidal activity against Spodoptera littoralis after 6 days
Type: functional, organism-based

Row | Structure (SMILES) | Activity
1 | C=C(C(=O)NCCCCNC(=O)/C=C/c1ccccc1)[C@@H](O)CO | inactive
2 | CC1=CC(O)N(CCCCNC(=O)/C=C/c2ccccc2)C1=O (configuration not stated) | inactive
